Source: PubChem BioAssay AID2060506 (Molecular Pharmacology Branch, DTP, NCI, 2025)

Tested on: 598228-144-R-J1-PDC complex spheroid viability
Assay: Anticancer human tumor 598228-144-R-J1-PDC patient-derived serous endometrial adenocarcinoma cell line growth inhibition [GQUAD]
Conditions: for IC50: curve of first compound; for viability, T/C: stronger effect = lower value; active = viability on the fitted dose curve at most 10% of control; inactive = the rest
How it was run: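 Viability of tumor cells grown as complex spheroids with endothelial and stromal cells, exposed to drug combinations. Top concentration at or near clinical Cmax (else 10 microM), diluted in half-log increments.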

[1] = second compound 0.0316 µM, first compound 0.000999 µM
[2] = second compound 0.0316 µM, first compound 0.00316 µM
[3] = second compound 0.0316 µM, first compound 0.00999 µM
[4] = second compound 0.0316 µM, first compound 0.0316 µM
[5] = second compound 0.0316 µM, first compound 0.0999 µM
[6] = second compound 0.0316 µM, first compound 0.316 µM
[7] = second compound 0.1 µM, first compound 0.000999 µM
[8] = second compound 0.1 µM, first compound 0.00316 µM
[9] = second compound 0.1 µM, first compound 0.00999 µM
[10] = second compound 0.1 µM, first compound 0.0316 µM
[11] = second compound 0.1 µM, first compound 0.0999 µM
[12] = second compound 0.1 µM, first compound 0.316 µM
[13] = second compound 0.316 µM, first compound 0.000999 µM
[14] = second compound 0.316 µM, first compound 0.00316 µM
[15] = second compound 0.316 µM, first compound 0.00999 µM
[16] = second compound 0.316 µM, first compound 0.0316 µM
[17] = second compound 0.316 µM, first compound 0.0999 µM
[18] = second compound 0.316 µM, first compound 0.316 µM
[19] = second compound 1 µM, first compound 0.000999 µM
[20] = second compound 1 µM, first compound 0.00316 µM
[21] = second compound 1 µM, first compound 0.00999 µM
[22] = second compound 1 µM, first compound 0.0316 µM
[23] = second compound 1 µM, first compound 0.0999 µM
[24] = second compound 1 µM, first compound 0.316 µM
[25] = second compound 3.16 µM, first compound 0.000999 µM
[26] = second compound 3.16 µM, first compound 0.00316 µM
[27] = second compound 3.16 µM, first compound 0.00999 µM
[28] = second compound 3.16 µM, first compound 0.0316 µM
[29] = second compound 3.16 µM, first compound 0.0999 µM
[30] = second compound 3.16 µM, first compound 0.316 µM
[31] = second compound 10 µM, first compound 0.000999 µM
[32] = second compound 10 µM, first compound 0.00316 µM
[33] = second compound 10 µM, first compound 0.00999 µM
[34] = second compound 10 µM, first compound 0.0316 µM
[35] = second compound 10 µM, first compound 0.0999 µM
[36] = second compound 10 µM, first compound 0.316 µM
[37] = second compound 0.0316 µM, first compound 0.1 µM
[38] = second compound 0.0316 µM, first compound 1 µM
[39] = second compound 0.0316 µM, first compound 3.16 µM
[40] = second compound 0.0316 µM, first compound 10 µM
[41] = second compound 0.1 µM, first compound 0.1 µM
[42] = second compound 0.1 µM, first compound 1 µM
[43] = second compound 0.1 µM, first compound 3.16 µM
[44] = second compound 0.1 µM, first compound 10 µM
[45] = second compound 0.316 µM, first compound 0.1 µM
[46] = second compound 0.316 µM, first compound 1 µM
[47] = second compound 0.316 µM, first compound 3.16 µM
[48] = second compound 0.316 µM, first compound 10 µM
[49] = second compound 1 µM, first compound 0.1 µM
[50] = second compound 1 µM, first compound 1 µM
[51] = second compound 1 µM, first compound 3.16 µM
[52] = second compound 1 µM, first compound 10 µM
[53] = second compound 3.16 µM, first compound 0.1 µM
[54] = second compound 3.16 µM, first compound 1 µM
[55] = second compound 3.16 µM, first compound 3.16 µM
[56] = second compound 3.16 µM, first compound 10 µM
[57] = second compound 10 µM, first compound 0.1 µM
[58] = second compound 10 µM, first compound 1 µM
[59] = second compound 10 µM, first compound 3.16 µM
[60] = second compound 10 µM, first compound 10 µM
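Note: spheroids exposed to the agents for one week before reading.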
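Throughout, for viability, T/C: percent of vehicle DMSO control viability so 100% = untreated growth.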

Cc1[nH]c2ccccc2c1CCNCc1ccc(/C=C/C(=O)NO)cc1 + Cc1[nH]c2ccc(F)cc2c1-c1nc2c3cccnc3c3ncccc3c2[nH]1
23.9 nM: IC50 (second compound 1 µM)
63 nM: IC50 (second compound 0.1 µM)
< 0.999 nM: IC50 (second compound 3.16 µM)
58 nM: IC50 (second compound 0.316 µM)
active: viability, T/C [6] 0.83% | viability, T/C [12] 1.46% | viability, T/C [18] 0.7% | viability, T/C [24] 0.79% | viability, T/C [30] 0.97% | viability, T/C [36] 0.53%
62.9 nM: IC50 (second compound 0.0316 µM)
39.1 nM: IC50 (second compound 10 µM)
inactive: viability, T/C [1] 110% | viability, T/C [2] 115% | viability, T/C [3] 131% | viability, T/C [4] 82.5% | viability, T/C [5] 28% | viability, T/C [7] 111% | viability, T/C [8] 108% | viability, T/C [9] 103% | viability, T/C [10] 77.8% | viability, T/C [11] 31.4% | viability, T/C [13] 107% | viability, T/C [14] 108% | viability, T/C [15] 90.2% | viability, T/C [16] 73.5% | viability, T/C [17] 30.1% | viability, T/C [19] 71.8% | viability, T/C [20] 58% | viability, T/C [21] 62.6% | viability, T/C [22] 47.1% | viability, T/C [23] 22.4% | viability, T/C [25] 32.2% | viability, T/C [26] 32.8% | viability, T/C [27] 41.1% | viability, T/C [28] 32.7% | viability, T/C [29] 25.1% | viability, T/C [31] 84.1% | viability, T/C [32] 64.8% | viability, T/C [33] 79.1% | viability, T/C [34] 48.3% | viability, T/C [35] 33.6%

CC(C)n1c(=O)n(C)c2cnc3cc(F)c(-c4ccc(OCCCN5CCCCC5)nc4)cc3c21 + CN(C)c1ccc(Nc2c3ccc(NC(=O)CCN4CCCC4)cc3nc3cc(NC(=O)CCN4CCCC4)ccc23)cc1
9920 nM: IC50 (second compound 0.0316 µM)
> 10000 nM: IC50 (second compound 0.1 µM) | IC50 (second compound 0.316 µM)
8290 nM: IC50 (second compound 1 µM)
6870 nM: IC50 (second compound 3.16 µM)
inactive: viability, T/C [4] 112% | viability, T/C [37] 79.6% | viability, T/C [6] 102% | viability, T/C [38] 93% | viability, T/C [39] 78.1% | viability, T/C [40] 49.7% | viability, T/C [10] 117% | viability, T/C [41] 82.9% | viability, T/C [12] 94% | viability, T/C [42] 92.2% | viability, T/C [43] 86.8% | viability, T/C [44] 57.2% | viability, T/C [16] 110% | viability, T/C [45] 102% | viability, T/C [18] 98.9% | viability, T/C [46] 89.3% | viability, T/C [47] 89.5% | viability, T/C [48] 60% | viability, T/C [22] 75.7% | viability, T/C [49] 87.4% | viability, T/C [24] 99.2% | viability, T/C [50] 87.7% | viability, T/C [51] 83.1% | viability, T/C [52] 43.5% | viability, T/C [28] 98.2% | viability, T/C [53] 78.3% | viability, T/C [30] 103% | viability, T/C [54] 80.2% | viability, T/C [55] 83.3% | viability, T/C [56] 34.7% | viability, T/C [34] 70.8% | viability, T/C [57] 60.3% | viability, T/C [36] 44.7% | viability, T/C [58] 29.6% | viability, T/C [59] 15.8%
217 nM: IC50 (second compound 10 µM)
active: viability, T/C [60] 5.05%

CC[C@@]1(O)C(=O)OCc2c1cc1n(c2=O)Cc2cc3c(CN(C)C)c(O)ccc3nc2-1 + CN(C)c1ccc(Nc2c3ccc(NC(=O)CCN4CCCC4)cc3nc3cc(NC(=O)CCN4CCCC4)ccc23)cc1
> 316 nM: IC50 (second compound 0.0316 µM) | IC50 (second compound 0.1 µM)
225 nM: IC50 (second compound 3.16 µM)
97.7 nM: IC50 (second compound 0.316 µM)
87 nM: IC50 (second compound 1 µM)
75.7 nM: IC50 (second compound 10 µM)
inactive: viability, T/C [1] 84.4% | viability, T/C [2] 84.2% | viability, T/C [3] 105% | viability, T/C [4] 91.4% | viability, T/C [5] 54.6% | viability, T/C [6] 59.4% | viability, T/C [7] 99.4% | viability, T/C [8] 95.9% | viability, T/C [9] 95.3% | viability, T/C [10] 75.5% | viability, T/C [11] 56.6% | viability, T/C [12] 56.5% | viability, T/C [13] 95.8% | viability, T/C [14] 104% | viability, T/C [15] 101% | viability, T/C [16] 72.8% | viability, T/C [17] 48.5% | viability, T/C [18] 50.5% | viability, T/C [19] 84.3% | viability, T/C [20] 91.8% | viability, T/C [21] 92% | viability, T/C [22] 102% | viability, T/C [23] 42.6% | viability, T/C [24] 45.8% | viability, T/C [25] 97.8% | viability, T/C [26] 89.9% | viability, T/C [27] 86.4% | viability, T/C [28] 94.6% | viability, T/C [29] 57.5% | viability, T/C [30] 46.8% | viability, T/C [31] 66.9% | viability, T/C [32] 90.9% | viability, T/C [33] 81.5% | viability, T/C [34] 62.6% | viability, T/C [35] 48.5% | viability, T/C [36] 42.3%

C=CCn1c(=O)c2cnc(Nc3ccc(N4CCN(C)CC4)cc3)nc2n1-c1cccc(C(C)(C)O)n1 + Cc1[nH]c2ccc(F)cc2c1-c1nc2c3cccnc3c3ncccc3c2[nH]1
> 10000 nM: IC50 (second compound 0.1 µM) | IC50 (second compound 0.316 µM) | IC50 (second compound 1 µM) | IC50 (second compound 10 µM)
inactive: viability, T/C [4] 110% | viability, T/C [37] 102% | viability, T/C [6] 83.2% | viability, T/C [38] 48.3% | viability, T/C [39] 47.1% | viability, T/C [40] 52.8% | viability, T/C [10] 125% | viability, T/C [41] 84.6% | viability, T/C [12] 62.5% | viability, T/C [42] 53.4% | viability, T/C [43] 52.8% | viability, T/C [44] 55.9% | viability, T/C [16] 77.7% | viability, T/C [45] 75.4% | viability, T/C [18] 66.1% | viability, T/C [46] 48.9% | viability, T/C [47] 55.6% | viability, T/C [48] 62.4% | viability, T/C [22] 52% | viability, T/C [49] 59.8% | viability, T/C [24] 46.7% | viability, T/C [50] 48.7% | viability, T/C [51] 55% | viability, T/C [52] 74.5% | viability, T/C [28] 40.1% | viability, T/C [53] 35.1% | viability, T/C [30] 39.9% | viability, T/C [54] 44.6% | viability, T/C [55] 59% | viability, T/C [56] 62.3% | viability, T/C [34] 73.6% | viability, T/C [57] 54.6% | viability, T/C [36] 50.4% | viability, T/C [58] 42.4% | viability, T/C [59] 52.2% | viability, T/C [60] 57.7%
< 31.6 nM: IC50 (second compound 3.16 µM)
999 nM: IC50 (second compound 0.0316 µM)
